Measured values from patent publication US12435060B2, “Acylamino bridged heterocyclic compound, and composition and application thereof” (BEIJING SCITECH-MQ PHARMACEUTICALS LIMITED, priority 2019, dated 2025).

What follows are compounds tested on HT29 cells (assay: Inhibition of cell necrosis (CCK8 method), induced programmed necrosis of HT29 cells). Conditions: Homo sapiens, HT-29; rescue from necrosis induced by TNF-α 20 ng/mL, AT-406 1 μM, Z-VAD-FMK 20 μM; 16-20 hours; CCK-8, OD 450 nm.
Assay type: cell-based
How it was run: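 Rescue from programmed necrosis was scored by CCK-8 absorbance at 450 nm after 16-20 h of TNF-α (20 ng/mL), AT-406 (1 μM) and Z-VAD-FMK (20 μM) at 37 °C, 5% CO2. HT29 cells had received compound 30 min earlier across nine 4-fold dilutions (top 25000 nM final). IC50 came from % inhibition relative to uninduced and induced-only wells.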

| SMILES | IC50 [nM] |
| --- | --- |
| CCCCCCCCOc1ccc(C)c(-c2ccnc(NC(=O)c3nnc(Cc4ccccc4)[nH]3)c2)c1 [Example 100, 5-benzyl-N-(4-(2-methyl-5-(octyloxy)phenyl)pyridin-2-yl)-4H-1,2,4-triazole-3-carboxamide] | 100 to 1000 |
| Cc1ccc(OCCCC(C)(C)O)cc1-c1ccnc(NC(=O)c2nnc(CC3CCCCC3)[nH]2)c1 [Example 175, 5-(cyclohexylmethyl)-N-(4-(5-((4-hydroxy-4-methylpentyl)oxy)-2-methylphenyl)pyridin-2-yl)-4H-1,2,4-triazole-3-carboxamide] | ≤ 100 |
| O=C(Nc1cc(-c2cc(OCCC3CCOCC3)ccc2F)c(Cl)cn1)c1nnc(CC2CCCCC2)[nH]1 [Example 334, N-(5-chloro-4-(2-fluoro-5-(2-(tetrahydro-2H-pyran-4-yl)ethoxy)phenyl)pyridin-2-yl)-5-(cyclohexylmethyl)-4H-1,2,4-triazole-3-carboxamide] | 100 to 1000 |
| Cc1ccc(OC(C)C)cc1-c1ccnc(NC(=O)c2nnc(Cc3ccccc3)[nH]2)c1 [Example 114, 5-benzyl-N-(4-(5-isopropoxy-2-methylphenyl)pyridin-2-yl)-4H-1,2,4-triazole-3-carboxamide] | 100 to 1000 |
| CC(C)(C)OCCOc1ccc(C(F)(F)F)c(-c2ccnc(NC(=O)c3nnc(Cc4ccccc4)[nH]3)c2)c1 [Example 291, 5-benzyl-N-(4-(5-(2-(tert-butoxy)ethoxy)-2-(trifluoromethyl)phenyl)pyridin-2-yl)-4H-1,2,4-triazole-3-carboxamide] | ≤ 100 |
| O=C(Nc1cc(C2CCCCC2)ccn1)c1nnc(Cc2ccccc2)[nH]1 [Example 48, 5-benzyl-N-(4-cyclohexylpyridin-2-yl)-4H-1,2,4-triazole-3-carboxamide] | > 10000 |
| Cc1ccc(OCCCC(C)(C)O)cc1-c1cc(NC(=O)c2nnc(CC3CCCCC3)[nH]2)ncn1 [Example 440, 5-(cyclohexylmethyl)-N-(6-(5-((4-hydroxy-4-methylpentyl)oxy)-2-methylphenyl)pyrimidin-4-yl)-4H-1,2,4-triazole-3-carboxamide] | ≤ 100 |
| CCc1ccc(OC)c(-c2ccnc(NC(=O)c3nnc(Cc4ccccc4)[nH]3)c2)c1 [Example 104, 5-benzyl-N-(4-(5-ethyl-2-methoxyphenyl)pyridin-2-yl)-4H-1,2,4-triazole-3-carboxamide] | 1000 to 10000 |
| O=C(Nc1cc(-c2cc(OCCC3CCOCC3)ccc2Cl)c(F)cn1)c1nnc(Cc2ccccc2F)[nH]1 [Example 428, N-(4-(2-chloro-5-(2-(tetrahydro-2H-pyran-4-yl)ethoxy)phenyl)-5-fluoropyridin-2-yl)-5-(2-fluorobenzyl)-4H-1,2,4-triazole-3-carboxamide] | ≤ 100 |
| CC(C)OCCOc1ccc(C(F)(F)F)c(-c2ccnc(NC(=O)c3nnc(Cc4ccccc4)[nH]3)c2)c1 [Example 287, 5-benzyl-N-(4-(5-(2-isopropoxyethoxy)-2-(trifluoromethyl)phenyl)pyridin-2-yl)-4H-1,2,4-triazole-3-carboxamide] | ≤ 100 |
| Cc1ccc(OCCCCC(C)(C)O)cc1-c1ccnc(NC(=O)c2nnc(Cc3ccccc3)[nH]2)c1 [Example 167, 5-benzyl-N-(4-(5-((5-hydroxyl-5-methylhexyl)oxy)-2-methylphenyl)pyridin-2-yl)-4H-1,2,4-triazole-3-carboxamide] | ≤ 100 |
| Cc1ccc(OCCC2CCOCC2)cc1-c1cc(NC(=O)c2nnc(Cc3ccccc3)[nH]2)ncn1 [Example 445, 5-benzyl-N-(6-(2-methyl-5-(2-(tetrahydro-2H-pyran-4-yl)ethoxy)phenyl)pyrimidin-4-yl)-4H-1,2,4-triazole-3-carboxamide] | ≤ 100 |
| COCCCCOc1ccc(C)c(-c2ccnc(NC(=O)c3nnc(Cc4ccccc4)[nH]3)c2)c1 [Example 152, 5-benzyl-N-(4-(5-(4-methoxybutoxy)-2-methylphenyl)pyridin-2-yl)-4H-1,2,4-triazole-3-carboxamide] | ≤ 100 |
| COCCOc1ccc(C(F)(F)F)c(-c2ccnc(NC(=O)c3nnc(CC4CCCC4)[nH]3)c2)c1 [Example 281, 5-(cyclopentylmethyl)-N-(4-(5-(2-methoxyethoxy)-2-(trifluoromethyl)phenyl)pyridin-2-yl)-4H-1,2,4-triazole-3-carboxamide] | ≤ 100 |
| O=C(Nc1cc(-c2ccccc2C2CC2)ccn1)c1nnc(Cc2ccccc2)[nH]1 [Example 8, 5-benzyl-N-(4-(2-cyclopropylphenyl)pyridin-2-yl)-4H-1,2,4-triazole-3-carboxamide] | 1000 to 10000 |
| COc1cnccc1-c1ccnc(NC(=O)c2nnc(Cc3ccccc3)[nH]2)c1 [Example 25, 5-benzyl-N-(3′-methoxy-[4,4′-bipyridin]-2-yl)-4H-1,2,4-triazole-3-carboxamide] | 1000 to 10000 |

| SMILES | IC50 [nM] |
| --- | --- |
| O=C(Nc1cc(-c2cc(OCCCCCO)ccc2Cl)ccn1)c1nnc(Cc2ccccc2)[nH]1 [Example 375, 5-benzyl-N-(4-(2-chloro-5-((5-hydroxypentyl)oxy)phenyl)pyridin-2-yl)-4H-1,2,4-triazole-3-carboxamide] | ≤ 100 |
| CC(C)Oc1ccccc1-c1ccnc(NC(=O)c2nnc(Cc3ccccc3)[nH]2)c1 [Example 5, 5-benzyl-N-(4-(2-isopropyloxyphenyl)pyridin-2-yl)-4H-1,2,4-triazole-3-carboxamide] | > 10000 |
| CC(C)(O)CCCOc1ccc(Cl)c(-c2cc(NC(=O)c3nnc(Cc4ccccc4)[nH]3)ncn2)c1 [Example 462, 5-benzyl-N-(6-(2-chloro-5-((4-hydroxy-4-methylpentyl)oxy)phenyl)pyrimidin-4-yl)-4H-1,2,4-triazole-3-carboxamide] | ≤ 100 |
| CC(C)(O)CCCOc1ccc(C(F)(F)F)c(-c2ccnc(NC(=O)c3nnc(CC4CCCC4)[nH]3)c2)c1 [Example 258, 5-(cyclopentylmethyl)-N-(4-(5-((4-hydroxy-4-methylpentyl)oxy)-2-(trifluoromethyl)phenyl)pyridin-2-yl)-4H-1,2,4-triazole-3-carboxamide] | ≤ 100 |
| O=C(Nc1cc(-c2cc(OCC3CCOCC3)ccc2C(F)(F)F)ccn1)c1nnc(Cc2ccc(F)cc2)[nH]1 [Example 302, 5-(4-fluorobenzyl)-N-(4-(5-((tetrahydro-2H-pyran-4-yl)methoxy)-2-(trifluoromethyl)phenyl)pyridin-2-yl)-4H-1,2,4-triazole-3-carboxamide] | ≤ 100 |
| Cc1ccc(OCC(N)=O)cc1-c1ccnc(NC(=O)c2nnc(Cc3ccccc3)[nH]2)c1 [Example 116, N-(4-(5-(2-amino-2-oxoethoxy)-2-methylphenyl)pyridin-2-yl)-5-benzyl-4H-1,2,4-triazole-3-carboxamide] | 100 to 1000 |
| CC(C)(O)CCCCOc1ccc(Cl)c(-c2ccnc(NC(=O)c3nnc(CC4CCCCC4)[nH]3)c2)c1 [Example 370, N-(4-(2-chloro-5-((5-hydroxyl-5-methylhexyl)oxy)phenyl)pyridin-2-yl)-5-(cyclohexylmethyl)-4H-1,2,4-triazole-3-carboxamide] | ≤ 100 |
| CC(C)(O)CCCCOc1ccc(Cl)c(-c2ccnc(NC(=O)c3nnc(CC4CCCC4)[nH]3)c2)c1 [Example 369, N-(4-(2-chloro-5-((5-hydroxyl-5-methylhexyl)oxy)phenyl)pyridin-2-yl)-5-(cyclopentylmethyl)-4H-1,2,4-triazole-3-carboxamide] | ≤ 100 |
| Cc1ccc(OCCCC(C)(C)O)cc1-c1ccnc(NC(=O)c2nnc(Cc3cc(C(F)(F)F)ccc3F)[nH]2)c1 [Example 211, 5-(2-fluoro-5-trifluoromethylbenzyl)-N-(4-(5-((4-hydroxy-4-methylpentyl)oxy)-2-methylphenyl)pyridin-2-yl)-4H-1,2,4-triazole-3-carboxamide] | 100 to 1000 |
| CCN(CC)CCOc1ccc(C)c(-c2ccnc(NC(=O)c3nnc(Cc4ccccc4)[nH]3)c2)c1 [Example 135, 5-benzyl-N-(4-(5-(2-(diethylamino)ethoxy)-2-methylphenyl)pyridin-2-yl)-4H-1,2,4-triazole-3-carboxamide] | ≤ 100 |
| Cc1ccc(OCCCC(C)(C)O)cc1-c1ccnc(NC(=O)c2nnc(CC3CCCCCC3)[nH]2)c1 [Example 222, 5-(cycloheptylmethyl)-N-(4-(5-((4-hydroxy-4-methylpentyl)oxy)-2-methylphenyl)pyridin-2-yl)-4H-1,2,4-triazole-3-carboxamide] | ≤ 100 |
| COc1cccc(Cc2nnc(C(=O)Nc3cc(-c4cc(OCCCC(C)(C)O)ccc4C)ccn3)[nH]2)c1 [Example 186, 5-(3-methoxybenzyl)-N-(4-(5-((4-hydroxy-4-methylpentyl)oxy)-2-methylphenyl)pyridin-2-yl)-4H-1,2,4-triazole-3-carboxamide] | 100 to 1000 |
| CC(C)(O)CCCCOc1ccc(F)c(-c2cc(NC(=O)c3nnc(Cc4ccccc4F)[nH]3)ncc2Cl)c1 [Example 325, N-(5-chloro-4-(2-fluoro-5-((5-hydroxyl-5-methylhexyl)oxy)phenyl)pyridin-2-yl)-5-(2-fluorobenzyl)-4H-1,2,4-triazole-3-carboxamide] | 100 to 1000 |
| CCC(O)(CC)CCCOc1ccc(C)c(-c2ccnc(NC(=O)c3nnc(CC4CCCC4)[nH]3)c2)c1 [Example 166, 5-(cyclopentylmethyl)-N-(4-(5-((4-ethyl-4-hydroxyhexyl)oxy)-2-methylphenyl)pyridin-2-yl)-4H-1,2,4-triazole-3-carboxamide] | ≤ 100 |
| Cc1ccc(OCCN2CCCCC2)cc1-c1ccnc(NC(=O)c2nnc(Cc3ccccc3)[nH]2)c1 [Example 228, 5-benzyl-N-(4-(2-methyl-5-(2-(piperidin-1-yl)ethoxy)phenyl)pyridin-2-yl)-4H-1,2,4-triazole-3-carboxamide] | 100 to 1000 |
| CC(C)(C)OCCOc1ccc(Cl)c(-c2ccnc(NC(=O)c3nnc(CC4CCCC4)[nH]3)c2)c1 [Example 393, N-(4-(5-(2-(tert-butoxy)ethoxy)-2-chlorophenyl)pyridin-2-yl)-5-(cyclopentylmethyl)-4H-1,2,4-triazole-3-carboxamide] | ≤ 100 |
